Measurements as given in patent US6685962B2, “Gastroretentive controlled release pharmaceutical dosage forms” (priority 1999, dated 2004).

Test: Riboflavin plasma pharmacokinetics and bioavailability after IV bolus, oral solution or GRDF
Assay type: in vivo, Beagle dogs
Conditions: for log-terminal slope of plasma riboflavin concentration: 100 mg riboflavin-5-phosphate, dogs n=6
Experimental: Each dog received the drug by each of these modes, with at least one-week washout period between every phase of the study.
Following each administration blood samples (4 ml) were collected into 5 ml heparinized test tubes wrapped in aluminum foil (to protect from light), for modes (1) and (2) at times 0, 0.25, 0.5, 1, 1.5, 2, 2.5, 3, 3.5, 4, 6, 8, 11, 24 hours, and for mode (3) at times 0, 0.5, 1, 1.5, 2, […], 3, 4, 6, 9, 12, 15, 18, 21, 24, 27, 30, 33, 36 and 48 hours. Plasma was separated following centrifugation (4000 rpm for 10 minutes), and stored at −20° C. pending analysis.
Riboflavin plasma concentrations were determined by an HPLC method as follows: 100 μl trichloroacetic acid (20%) was mixed with 300 μl of a plasma sample. Following centrifugation of the mixture (13,000 rpm for 10 minutes) the supernatant was separated and incubated for 10 min at 85° C. After additional centrifugation (13,000 rpm for 10 minutes) 60 μl of the solution were injected to C18 HPLC column, with mobile phase that consisted of 15% acetonitrile in solution A (10 mmol potassium dihydrogen phosphate/L and 5 mmol hexanesulfonic acid/L, brought to a pH of 3 with orthophosphoric acid) at a flow rate of 1 ml/min. A spectrofluorometric detector set at 445 nm for excitation wavelength and 530 nm for emission wavelength detected the drug. Drug concentrations were determined with appropriate standard curves.

bioavailability (Beagle, dog, plasma, 100 mg, oral administration (oral solution), dogs, read-out: absolute bioavailability of riboflavin): 5.8 ± 2.2%
rate of riboflavin elimination (concluded from iv and PO administration, dogs): 0.4 h⁻¹
log-terminal slope of plasma riboflavin concentration (intravenous bolus): 0.44±0.13 hr^−1
log-terminal slope of plasma riboflavin concentration (oral solution): 0.35±0.14 hr^−1
Structure (SMILES): Cc1cc2nc3c(=O)[nH]c(=O)nc-3n(C[C@H](O)[C@H](O)[C@H](O)CO)c2cc1C [riboflavin]
